Assay results: patent publication US9732067B2, “Compounds and methods for activating the apoptotic arm of the unfolded protein response” (University of Kansas, priority 2012, dated 2017)
Several values for one entry are separate records, joined by “and”; a condition that tells them apart may be missing. Identical values can stand only once. Like-named read-outs stand apart in the source and are kept apart here.

Legend:
−/− MEF KO CHOP = test: Proliferation / cytotoxicity (ATPLite) in MEF with CHOP KO; assay type: cell-based; conditions: Mus musculus
Experimental: Several of the analogs derived from these changes were evaluated in secondary assays as they met the preliminary probe criteria for UPR-CHOP and UPR-XBP1 activity. Select compounds were assessed in a dose response manner for the ability to suppress proliferation in both the CHOP wild-type and CHOP knockout murine embryonic fibroblasts (−/− MEF KO CHOP)(Table 2).
It was determined whether ML291 and ML291 congeners would induce cell death (cytotoxicity as measured by ATPLite®, which measures production of ATP from living cells) in cells where these pathways are operant, but not activate them in the absence of the pathways.

[1] = Aqueous solubility in 1x PBS, pH 7.4; assay type: physicochemical; conditions: room temperature (23° C.)
Experimental: Solubility was measured in phosphate-buffered saline (PBS) at room temperature (23° C.). PBS by definition is 137 mM NaCl, 2.7 mM KCl, 10 mM sodium phosphate dibasic, 2 mM potassium phosphate monobasic and a pH of 7.4.

[2] = Plasma protein binding, human; assay type: in vitro ADME
Source text: Plasma protein binding is a measure of a drug's efficiency to bind to the proteins within blood plasma. The less bound a drug is, the more efficiently it can traverse cell membranes or diffuse. Highly plasma protein bound drugs are confined to the vascular space, thereby having a relatively low volume of distribution. In contrast, drugs that remain largely unbound in plasma are generally available for distribution to other organs and tissues. ML291 was highly plasma protein bound to human plasma proteins (>99%), though it is somewhat less tightly bound to mouse plasma proteins (˜84%).

Plasma stability, human = assay type: in vitro ADME
Source text: (§1) Plasma stability is a measure of the stability of small molecules and peptides in plasma and is an important parameter, which strongly can influence the in vivo efficacy of a test compound. Drug candidates are exposed in plasma to enzymatic processes (proteinases, esterases), and they can undergo intramolecular rearrangement or bind irreversibly (covalently) to proteins. ML291 appeared to be moderately stable in human plasma (˜84% remaining), but less so in mouse plasma (˜52% remaining).

Plasma stability, mouse = assay type: in vitro ADME
Source text: as §1

[3] = Hepatic microsome stability, human; assay type: in vitro ADME
Source text: (§2) The microsomal stability assay is commonly used to rank compounds according to their metabolic stability. This assay addresses the pharmacologic question of how long the parent compound will remain circulating in plasma within the body.

[4] = Hepatic microsome stability, mouse; assay type: in vitro ADME
Source text: as §2

[5] = Toxicity towards Fa2N-4 immortalized human hepatocytes; assay type: cell-based; conditions: read-out: Toxicity Towards Fa2N-4 Immortalized Human Hepatocytes LC50
[6] = biological target: T1, dopamine transporter (DAT) (Homo sapiens, UniProt Q01959); test: Radio-ligand binding panel (Ricerca), 67 GPCRs, ion channels and transporters
T1 construct: Ricerca Biosciences LLC (Bothell, Wash.)
T1 sequence (Q01959 whole entry, species assumed): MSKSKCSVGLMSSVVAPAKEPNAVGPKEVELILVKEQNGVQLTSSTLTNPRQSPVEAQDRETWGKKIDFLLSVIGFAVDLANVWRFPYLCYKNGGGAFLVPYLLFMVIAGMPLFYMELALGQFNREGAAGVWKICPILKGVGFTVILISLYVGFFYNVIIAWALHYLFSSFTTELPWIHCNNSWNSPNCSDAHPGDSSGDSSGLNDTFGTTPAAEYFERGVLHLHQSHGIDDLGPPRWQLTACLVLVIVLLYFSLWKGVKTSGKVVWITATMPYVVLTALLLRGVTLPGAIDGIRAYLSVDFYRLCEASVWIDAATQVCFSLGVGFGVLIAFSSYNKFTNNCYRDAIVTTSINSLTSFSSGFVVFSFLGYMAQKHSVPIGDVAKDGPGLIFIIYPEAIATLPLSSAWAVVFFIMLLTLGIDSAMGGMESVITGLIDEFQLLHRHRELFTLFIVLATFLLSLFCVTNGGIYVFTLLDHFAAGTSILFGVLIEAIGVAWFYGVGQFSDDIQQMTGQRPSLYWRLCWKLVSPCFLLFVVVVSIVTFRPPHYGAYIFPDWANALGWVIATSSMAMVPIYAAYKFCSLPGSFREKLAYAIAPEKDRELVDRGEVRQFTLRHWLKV
Experimental: ML291 was submitted to Ricerca Biosciences LLC (Bothell, Wash.) to evaluate it in radio-ligand binding assays to determine activity against a panel of 67 GPCRs, ion channels and transporters at 10 μM.

A253-CHOP-luc xenografts = test: Bioluminescent imaging of A253-CHOP-luc xenografts; assay type: in vivo, SCID mice; conditions: 24 hours after 10 mg/kg (IP)
UMSCC23 = test: Proliferation, UMSCC23; assay type: cell-based; conditions: Homo sapiens, 24 hours, average of three experiments
Experimental: (§3) To determine whether ML291 could reduce the proliferation of malignant cells, a panel of OSCC (UMSCC23, A253, HN6, HN12, HN30, H460/T800) and ovarian cancer (RMG-1, TOV112D, A2780 and SKOV3) cell lines, were treated with increasing doses (0.15-20 μM) of ML291 for 24 hours (FIGS. 3A and 3B).

A253 = test: Proliferation, A253; assay type: cell-based; conditions: Homo sapiens, 24 hours, average of three experiments
Experimental: as §3

HN12 = test: Proliferation, HN12; assay type: cell-based; conditions: 24 hours, average of three experiments
Experimental: as §3

H460/T800 = test: Proliferation, H460/T800; assay type: cell-based; conditions: Homo sapiens, NCI-H460, 24 hours, average of three experiments
Experimental: as §3

RMG-1 (ovarian) = test: Proliferation, RMG-1; assay type: cell-based; conditions: 24 hours
Experimental: as §3

TOV112D (ovarian) = test: Proliferation, TOV112D; assay type: cell-based; conditions: Homo sapiens, 24 hours
Experimental: as §3

A2780 (ovarian) = test: Proliferation, A2780; assay type: cell-based; conditions: Homo sapiens, 24 hours
Experimental: as §3

SKOV3 = test: Proliferation, SKOV3; assay type: cell-based; conditions: Homo sapiens, SK-OV-3, 24 hours
Experimental: as §3

[7] = Stability in PBS at room temperature; assay type: physicochemical; conditions: 48 hours, 23° C.
Experimental: Stability was measured under two distinct conditions with ML291: at room temperature (23° C.) in PBS (no antioxidants or other protectants and DMSO concentration below 0.1%) and with 50% acetonitrile added to account for challenges with solubility of the compound in PBS alone. Stability was determined as the loss of compound with time over a 48 hour period with a minimum of 6 time points.

OSCC = test: Preliminary combination studies with cisplatin and taxol; assay type: cell-based
Experimental: To confirm the ability of ML291 to activate UPR-luciferase reporters stably transfected into UMSCC23 and A253 cells and reduce tumor burden, additional xenograft studies are performed with additional animals to permit real-time measurement of UPR activation during drug treatment (bioluminescent imaging). The data presented herein indicate that ML291 can activate the UPR in xenograft tissue at 10 mg/kg. […] Thus, mice are injected IP in the morning with 10-100 mg/kg ML291. Injection in the morning, i.e., when the lights come on in the vivarium and the mice stomachs are most likely to be full, is a technique known to enhance absorption of nitrofurans into the bloodstream (Heinrichs (2001) Behavioural Brain Res. 125:81-88). […] Upon completion of this experiment, control and ML291 treated mice (3 each) undergo complete pathological necropsy to identify gross or histological signs of organ toxicity. Once the degree to which ML291 induces the UPR and reduces xenograft burden is analyzed, additional studies are carried out with combination therapies using standard of care OSCC drugs. […] It is posited that ML291-enforced UPR in the tumor milieu potentiates conventional therapies and might enhance the effects of cisplatin, ifosfamide or taxol.

O=C(Nc1ccc(S(=O)(=O)N2CCC(Cl)CC2)cc1)c1ccc([N+](=O)[O-])o1 [ML291, N-(4-((4-chloropiperidin-1-yl)sulfonyl)phenyl)-5-nitrofuran-2-carboxamide]
EC50 (−/− MEF KO CHOP; Table 2, mean of replicates, EC50 and μM, read-out: Proliferation −/− MEF KO CHOP): > 20 µM | IC50 (−/− MEF KO CHOP; Table 5, MEF, ATPLite): > 20 µM | EC50 (−/− MEF KO CHOP; read-out: EC50 on −/− MEF knockout cells): > 20 µM | Aqueous Solubility in 1x PBS, pH 7.4 [1]: 3.9 μg/mL and 9.4 μM | bound to human plasma proteins [2]: > 99% | fraction unbound at 1 µM ([2]; plasma, Human, 1 μM, read-out: Plasma Protein Binding (% Bound) (converted)): 0.0025 | fraction unbound at 10 µM ([2]; plasma, Human, 10 μM, read-out: Plasma Protein Binding (% Bound) (converted)): 0.0037 | remaining in human plasma (Plasma stability, human): ~84% | Plasma Stability (% Remaining at 3 hours @ 37° C.) (Plasma stability, human; Human): 85.58% | remaining in mouse plasma (Plasma stability, mouse): ~52% | Plasma Stability (% Remaining at 3 hours @ 37° C.) (Plasma stability, mouse; Mouse): 52.31% | Hepatic Microsome Stability (% Remaining after 1 hour @ 37° C.) ([3]; Human): 0.49% | metabolism in human liver homogenates ([3]; within 1 hour): almost completely metabolized | Hepatic Microsome Stability (% Remaining after 1 hour @ 37° C.) ([4]; Mouse): 0.02% | metabolism in mouse liver homogenates ([4]; within 1 hour): almost completely metabolized | CC50 [5]: 11.4 µM | inhibition at 10 µM [6]: 68% | luminescence of xenografts (A253-CHOP-luc xenografts): increased luminescence | IC50 (UMSCC23): 7.31 ± 1.68 µM | IC50 (A253): 17.2 ± 3.64 µM | IC50 (HN12): 7.17 ± 0.69 µM | IC50 (H460/T800): 18.9 ± 1.83 µM | IC50 (RMG-1 (ovarian)): > 20 µM | IC50 (TOV112D (ovarian)): 6.59 µM | IC50 (A2780 (ovarian)): 2.16 µM | IC50 (SKOV3): 1.59 µM | percent remaining compound in PBS with 50% acetonitrile [7]: 100% | percent remaining compound in PBS ([7]; no additives): 11.44% | effect of combination with cisplatin and taxol (OSCC): reduced IC50 values
